Bridge positions count the residues as written; N and C are the ends. Square brackets hold non-standard residues; d marks the D form. Peptide text beside a SMILES is read from it. * marks the point of attachment. ξ: configuration not given here. Phe(3-CF3) = N[C@@H](Cc1cccc(C(F)(F)F)c1)C(=O)O; Phe(4-COOH) = N[C@@H](Cc1ccc(C(=O)O)cc1)C(=O)O; Bip = N[C@@H](Cc1ccc(-c2ccccc2)cc1)C(=O)O; NH(CH2)14COOH = O=C(O)CCCCCCCCCCCCCCN*; Phe(3-Me) = Cc1cccc(C[C@H](N)C(=O)O)c1; Val(3-OH) = CC(C)(O)[C@H](N)C(=O)O; 3Pal = N[C@@H](Cc1cccnc1)C(=O)O; Cha = N[C@@H](CC1CCCCC1)C(=O)O; Thr(3ξ) = CC(O)[C@H](N)C(=O)O; PEG4 = NCCOCCOCCOCCOCCC(=O)O; Carboxymethyl = O=C(O)C*; Orn = NCCC[C@H](N)C(=O)O; Aun = NCCCCCCCCCCC(=O)O; Dab = NCC[C@H](N)C(=O)O; Abu = CC[C@H](N)C(=O)O; Dap = NC[C@H](N)C(=O)O; AEEA = NCCOCCOCC(=O)O

For orientation: IC50 means the concentration that gives 50% inhibition.

T1 sequence (Q15116 25-288): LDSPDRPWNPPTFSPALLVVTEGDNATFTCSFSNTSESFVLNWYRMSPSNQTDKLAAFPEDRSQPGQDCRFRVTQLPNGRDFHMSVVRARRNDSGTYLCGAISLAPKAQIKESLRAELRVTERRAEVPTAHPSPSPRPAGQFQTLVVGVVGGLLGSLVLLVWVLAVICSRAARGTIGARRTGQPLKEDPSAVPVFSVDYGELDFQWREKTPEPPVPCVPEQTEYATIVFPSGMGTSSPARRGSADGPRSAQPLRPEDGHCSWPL

This assay has as its target T1, PD-1/PD-L1 interaction (PE-labeled human PD-L1-Ig binding to Jurkat cell line over-expressing human PD-1) (Homo sapiens, UniProt Q15116).
T1 construct: expressed in transfected cells; host or cells: Jurkat
Description: Jurkat-PD-1 Cell Binding High-Content Screening Assay (CBA). In kind it is cell-based. The following applies: Jurkat cell line over-expressing human PD-1; PE-labeled PD-L1-Ig 20 nM final; read-out: Jurkat hPD1-PDL1 IC50. Put shortly: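 Jurkat cells over-expressing human PD-1 (8×10^3 per well, DMEM/10% FCS) preincubated with compound 2 h at 37° C, then PE-labeled human PD-L1-Ig (20 nM final) added for 1 h. Cells fixed with paraformaldehyde, Hoechst-stained, and bound fluorescence quantified by high-content imaging.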
As to `Cc1cccc(C[C@@H]2NC(=O)[C@H](CC(=O)O)NC(=O)[C@H](Cc3ccc(OCC(=O)O)cc3)NC(=O)[C@H](CCCNC(=N)N)NC(=O)CSC[C@@H](C(=O)N[C@@H](CCN)C(=O)NCCCCCCCCCCC(=O)O)NC(=O)[C@H]([C@@H](C)O)NC(=O)[C@H](C(C)C)NC(=O)[C@H](CC3CCCCC3)NC(=O)[C@H](CCN)NC(=O)[C@@H](CC(C)C)NC(=O)[C@H](CCCN)NC(=O)[C@H](Cc3ccc(OCC(=O)O)cc3)NC(=O)[C@H](Cc3ccc(-c4ccccc4)cc3)NC(=O)[C@H](Cc3ccc(O)cc3)NC2=O)c1` [Compound 2081] ({CH2CO}-RY(Carboxymethyl)D[Phe(3-Me)]Y[Bip]Y(Carboxymethyl)[Orn][dL][Dab][Cha]VTC[Dab][Aun]-OH; thioether N-14), the IC50 amounted to 11.7 nM.

Consider `CC[C@@H]1NC(=O)CSC[C@@H](C(=O)N[C@@H](CCN)C(=O)NCCOCCOCCOCCOCCC(=O)NCCCCCCCCCCCCCCC(=O)O)NC(=O)[C@H](Cc2c[nH]cn2)NC(=O)[C@H](C(C)(C)O)NC(=O)[C@H](CC2CCCCC2)NC(=O)[C@H](CCN)NC(=O)[C@@H](CC(C)C)NC(=O)[C@H](CCCN)NC(=O)[C@H](Cc2ccc(C(=O)O)cc2)NC(=O)[C@H](Cc2ccc(-c3ccccc3)cc2)NC(=O)[C@H](Cc2ccc(C(=O)O)cc2)NC(=O)[C@H](Cc2cccc(C(F)(F)F)c2)NC(=O)[C@H](CC(=O)O)NC(=O)[C@H](Cc2ccc(OCC(=O)O)cc2)NC1=O` [Compound 2927] ({CH2CO}-[Abu]Y(Carboxymethyl)D[Phe(3-CF3)][Phe(4-COOH)][Bip][Phe(4-COOH)][Orn][dL][Dab][Cha][Val(3-OH)]HC[Dab][PEG4]-{NH(CH2)14COOH}; thioether N-14), for which the half-inhibitory concentration (IC50) is 244 nM.

In the case of `Cc1cccc(C[C@@H]2NC(=O)[C@H](CC(=O)O)NC(=O)[C@H](Cc3ccc(OCC(=O)O)cc3)NC(=O)[C@H](CN)NC(=O)CSC[C@@H](C(=O)N[C@@H](CCN)C(=O)NCCCCCCCCCCC(=O)O)NC(=O)[C@H](CCCN)NC(=O)[C@H](C(C)C)NC(=O)[C@H](CC3CCCCC3)NC(=O)[C@H](CCN)NC(=O)[C@@H](CC(C)C)NC(=O)[C@H](CCCN)NC(=O)[C@H](Cc3ccc(OCC(=O)O)cc3)NC(=O)[C@H](Cc3ccc(-c4ccccc4)cc3)NC(=O)[C@H](Cc3ccc(O)cc3)NC2=O)c1` [Compound 2858] ({CH2CO}-[Dap]Y(Carboxymethyl)D[Phe(3-Me)]Y[Bip]Y(Carboxymethyl)[Orn][dL][Dab][Cha]V[Orn]C[Dab][Aun]-OH; thioether N-14), the half-inhibitory concentration (IC50) amounted to 11.9 nM.

Take `Cc1cccc(C[C@@H]2NC(=O)[C@H](CC(=O)O)NC(=O)[C@H](Cc3ccc(OCC(=O)O)cc3)NC(=O)[C@H](C(C)O)NC(=O)CSC[C@@H](C(=O)N[C@@H](CCN)C(=O)NCCCCCCCCCCC(=O)O)NC(=O)[C@H](C(C)O)NC(=O)[C@H](C(C)C)NC(=O)[C@H](CC3CCCCC3)NC(=O)[C@H](CCN)NC(=O)[C@@H](CC(C)C)NC(=O)[C@H](CCCN)NC(=O)[C@H](Cc3ccc(O)cc3)NC(=O)[C@H](Cc3ccc(-c4ccccc4)cc3)NC(=O)[C@H](Cc3ccc(O)cc3)NC2=O)c1` (stereo partly drawn) [Compound 3456] ({CH2CO}-[Thr(3ξ)]Y(Carboxymethyl)D[Phe(3-Me)]Y[Bip]Y[Orn][dL][Dab][Cha]V[Thr(3ξ)]C[Dab][Aun]-OH; thioether N-14): the half-inhibitory concentration (IC50) was 26.4 nM. `Cc1cccc(C[C@@H]2NC(=O)[C@H](CC(=O)O)NC(=O)[C@H](Cc3ccc(OCC(=O)O)cc3)NC(=O)[C@H](CN)NC(=O)CSC[C@@H](C(=O)N[C@@H](CCN)C(=O)NCCOCCOCC(=O)NCCCCCCCCCCC(=O)O)NC(=O)[C@H](CCCN)NC(=O)[C@H](C(C)C)NC(=O)[C@H](CC3CCCCC3)NC(=O)[C@H](CCN)NC(=O)[C@@H](CC(C)C)NC(=O)[C@H](CCCN)NC(=O)[C@H](Cc3cccnc3)NC(=O)[C@H](Cc3ccc(-c4ccccc4)cc3)NC(=O)[C@H](Cc3ccc(O)cc3)NC2=O)c1` [Compound 2055] ({CH2CO}-[Dap]Y(Carboxymethyl)D[Phe(3-Me)]Y[Bip][3Pal][Orn][dL][Dab][Cha]V[Orn]C[Dab][AEEA][Aun]-OH; thioether N-14): the 50% inhibitory concentration (IC50) turned out to be 7.9 nM.

(Values after patent US20260022142A1, “MACROCYCLIC IMMUNOMODULATORS” (Bristol-Myers Squibb Company, priority 2022, published 2026).)
